Source: patent publication US20130310412A1, “Combinations of an Opioid/TLR4 Antagonist and a Direct-Acting Alpha-2 Adrenergic Agonist for Use in the Treatment of Pain” (priority 2010, published 2013)
Where two headings read alike, the source gives them in different places.

Columns and labels:
leg pain = experiment: Case study leg pain caused by L-5 radiculopathy; format: in vivo, human
[1] = biological target: Toll-like receptor 4 (TLR4) (Homo sapiens, UniProt O00206+Q9Y6Y9); conditions: cited from earlier work
Chain of Toll-like receptor 4 (TLR4) (O00206 24-839, species assumed): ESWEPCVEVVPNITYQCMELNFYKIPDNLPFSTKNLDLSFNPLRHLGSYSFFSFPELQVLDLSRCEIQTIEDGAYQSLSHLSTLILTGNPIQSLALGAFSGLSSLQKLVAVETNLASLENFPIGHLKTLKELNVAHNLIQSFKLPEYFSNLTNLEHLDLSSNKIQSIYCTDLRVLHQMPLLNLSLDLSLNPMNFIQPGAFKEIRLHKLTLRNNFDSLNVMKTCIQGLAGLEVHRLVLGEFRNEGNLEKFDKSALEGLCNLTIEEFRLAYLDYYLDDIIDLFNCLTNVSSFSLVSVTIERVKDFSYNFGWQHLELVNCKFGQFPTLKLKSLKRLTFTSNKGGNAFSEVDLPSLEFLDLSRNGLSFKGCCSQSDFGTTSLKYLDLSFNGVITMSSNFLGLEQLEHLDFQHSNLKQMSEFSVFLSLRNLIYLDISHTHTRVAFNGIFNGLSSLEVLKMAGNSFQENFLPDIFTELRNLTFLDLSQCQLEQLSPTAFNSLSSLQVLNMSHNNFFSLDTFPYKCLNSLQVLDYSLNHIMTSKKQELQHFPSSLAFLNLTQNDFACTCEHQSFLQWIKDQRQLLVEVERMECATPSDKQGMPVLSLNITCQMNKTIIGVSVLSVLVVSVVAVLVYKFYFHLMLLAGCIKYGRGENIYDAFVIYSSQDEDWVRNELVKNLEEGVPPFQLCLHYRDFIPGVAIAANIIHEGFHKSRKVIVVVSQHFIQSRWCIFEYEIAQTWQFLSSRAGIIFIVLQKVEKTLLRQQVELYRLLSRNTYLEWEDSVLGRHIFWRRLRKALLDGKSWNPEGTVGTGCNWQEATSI
Chain of Toll-like receptor 4 (TLR4) (Q9Y6Y9 17-160 limits assumed, species assumed): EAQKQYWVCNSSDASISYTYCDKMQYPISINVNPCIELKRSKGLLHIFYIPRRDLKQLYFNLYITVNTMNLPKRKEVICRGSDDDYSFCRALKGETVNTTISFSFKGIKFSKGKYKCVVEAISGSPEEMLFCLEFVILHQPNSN

neuropathic pain = conditions: animal models; cited from earlier work
opioid receptors = conditions: cited from earlier work
trigeminal neuralgia = experiment: Case study trigeminal neuralgia, open label, pain intensity scores and percent relief (baseline days 1-6, study drug days 7-30); format: in vivo, human; conditions: from pain level 9
Source text: Trigeminal neuralgia, also known as suicide disease, is a neuropathic disorder characterized by episodes of intense pain in the face, originating from the trigeminal nerve. It has been described as among the most painful conditions known to mankind. This case study is of a person with a three month history of trigeminal neuralgia. […] The pain involved the right check, upper jaw and the upper front teeth. The pain was constant and described as burning, stinging and aching. It was aggravated by eating, brushing teeth, flossing, chewing and talking. The subject's pain level on average was 5, but it would peak to 9. Ibuprofen brought the pain level from 9 to 7 for two hours, vicoden brought their pain level from 9 to 5, but relief lasted only three to four hours. The subject entered open label study for 3 weeks. […].

neuropathic back pain = experiment: Naltrexone and clonidine alone and in combination in a human subject: pain treatment effect, weight to weight synergy; format: in vivo; conditions: one hour post-dose, naltrexone 4.5 mg alone, clonidine 0.3 mg alone, combinations with naltrexone 2.25 mg
Protocol: (§1) Naltrexone and clonidine were evaluated alone and in combination on a human subject with the purpose of finding whether or not a combination of the two compounds offers synergistic advantage. Two aspects were evaluated for synergy: one aspect was pain treatment effect comparing the amounts used weight to weight, and the other aspect was an assessment of synergy of side effects.
(§2) The components of the combination were administered to a subject in the following manner: naltrexone 4.5 mg was given in the morning. The clonidine dose was divided into two doses, a dose of 0.1 mg in the morning and a dose of 0.2 mg at bedtime. […] The pain treatment effect of naltrexone and clonidine was evaluated after one hour post-dose.
To determine synergy, the amounts of naltrexone and clonidine administered alone were compared to the combination combined amounts.

[2] = Naltrexone and clonidine alone and in combination in a human subject: side effects over 24 hours; conditions: naltrexone 4.5 mg alone, clonidine 0.3 mg alone, combinations with naltrexone 2.25 mg
Protocol: as §1, §2

[3] = full dose; cited from earlier work
[4] = 0.5 mg, 42 IBS patients; cited from earlier work
[5] = cited from earlier work

## Etanercept
Leg pain; three perispinal injections
  duration of relief from previous treatment: two
  relief from previous treatment: 10%

## C=CCN1CC[C@]23c4c5ccc(O)c4O[C@H]2C(=O)CC[C@]3(O)[C@H]1C5 [(+)-naloxone]
[1]
  action at TLR4: selective antagonists of TLR4
Neuropathic pain
  treating symptoms of neuropathic pain: effective

## O=C1CC[C@]2(O)[C@@H]3Cc4ccc(O)c5c4[C@]2(CCN3CC2CC2)[C@@H]1O5 [(+)-naltrexone]
[1]
  action at TLR4: selective antagonists of TLR4
Opioid receptors
  affinity for opioid receptors: lack affinity
Neuropathic pain
  treating symptoms of neuropathic pain: effective

## CC(C)Cc1ccc(C(C)C(=O)O)cc1 (centres unmarked) [Ibuprofen]
Trigeminal neuralgia
  pain level with previous medication: 7

## botulinum toxin
Leg pain; in vivo
  duration of relief from previous treatment: two
  relief from previous treatment: 10%

## Clc1cccc(Cl)c1N=C1NCCN1 [Clonidine, clonidine]
Neuropathic back pain
  % reversal of pain: 50%

## CN1CC[C@]23c4c5ccc(O)c4O[C@H]2[C@@H](O)C=C[C@H]3[C@H]1C5 [morphine]
[1]
  action at TLR4: TLR4 agonists

## O=C1CC[C@@]2(O)[C@H]3Cc4ccc(O)c5c4[C@@]2(CCN3CC2CC2)[C@H]1O5 [Naltrexone, naltrexone]
[2]
  side effects: high incidence of alertness, insomnia and anxiety
[1]
  action at TLR4: antagonists for TLR4
Neuropathic back pain
  % reversal of pain: 100%
[3]
  incidence of nervousness, insomnia, and anxiety: single-digit incidence
[4]
  side effects: no side effects were reported
[5]; 2.5 mg daily
  Anxiety frequency: 11.9%
  Diarrhea frequency: 6.0%
  Muscle pain frequency: 4.5%
[5]; 5.0 mg daily
  Anxiety frequency: 21.7%
  Diarrhea frequency: 13.0%
  Muscle pain frequency: 15.2%
[5]; 24 patients, of those with side effects
  side effects that were short-lived: 32.4%
[5]; 121 patients
  Abdominal pain, Percentage of Participants: 11.6%
  Anorexia, Percentage of Participants: 8.3%
  Anxiety, Percentage of Participants: 15.7%
  Diarrhea, Percentage of Participants: 8.3%
  Dizziness, Percentage of Participants: 10.7%
  Drowsiness, Percentage of Participants: 11.6%
  Headache, Percentage of Participants: 11.6%
  Insomnia, Percentage of Participants: 8.3%
  Mood change, Percentage of Participants: 3.3%
  Muscle pain, Percentage of Participants: 8.3%
  Nausea, Percentage of Participants: 12.4%
  No side effects, Percentage of Participants: 38.8%
  Terminated Naltrexone because of side effects: 16.5%
  Trouble concentrating, Percentage of Participants: 1.7%
  Vivid dreams, Percentage of Participants: 5.0%
[5]; 121 patients, listed as LDN
  Total side effects, Percentage of Participants: 61%
[5]; 121 patients, listed as Low Dose Naltrexone
  Total side effects, Percentage of Participants: 61.2%
[5]; 121 patients, listed as low dose Naltrexone
  Total side effects, Percentage of Participants: 61/2
[5]; low dose
  incidence of nervousness, insomnia, and anxiety: double digit incidence

## C=CCN1CC[C@]23c4c5ccc(O)c4O[C@H]2C(=O)CC[C@@]3(O)[C@H]1C5 [naloxone]
[1]
  action at TLR4: antagonists for TLR4
